Experimental data reported in patent US9856216B2, “Compounds as TNIK, IKKε and TBK1 inhibitors and pharmaceutical composition comprising same” (GREEN CROSS CORPORATION, priority 2015, dated 2018).
Where a name gives a salt, the structure may show the parent alone.

Assays:
Format in all cases: biochemical
TBK1 = target: T1, TBK1 (Homo sapiens, UniProt Q9UHD2); experiment: ADP-Glo Kinase Assay, inhibition activity on TBK1
T1 construct: purchased Promega V3991
T1 sequence (Q9UHD2 1-729): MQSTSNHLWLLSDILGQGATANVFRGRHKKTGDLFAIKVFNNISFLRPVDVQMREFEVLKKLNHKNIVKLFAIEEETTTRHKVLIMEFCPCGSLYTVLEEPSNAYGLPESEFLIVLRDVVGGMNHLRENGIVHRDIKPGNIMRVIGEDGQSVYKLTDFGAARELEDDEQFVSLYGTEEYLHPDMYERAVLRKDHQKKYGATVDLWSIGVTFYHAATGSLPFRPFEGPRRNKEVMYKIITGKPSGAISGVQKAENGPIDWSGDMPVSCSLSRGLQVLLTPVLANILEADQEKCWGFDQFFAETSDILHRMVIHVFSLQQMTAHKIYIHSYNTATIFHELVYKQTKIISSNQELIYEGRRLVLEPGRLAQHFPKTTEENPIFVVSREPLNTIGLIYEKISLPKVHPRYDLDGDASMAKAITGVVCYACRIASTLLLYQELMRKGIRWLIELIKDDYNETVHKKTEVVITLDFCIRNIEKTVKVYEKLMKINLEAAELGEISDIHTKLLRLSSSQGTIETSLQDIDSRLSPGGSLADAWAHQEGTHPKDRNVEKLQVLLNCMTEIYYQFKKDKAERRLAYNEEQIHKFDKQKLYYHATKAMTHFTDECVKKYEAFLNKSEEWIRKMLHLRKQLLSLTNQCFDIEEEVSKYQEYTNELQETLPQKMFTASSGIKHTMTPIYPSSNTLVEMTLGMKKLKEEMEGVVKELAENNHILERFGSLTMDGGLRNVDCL
Method: (§1) The inhibition activities on TNIK, IKKε and TBK1 were measured by a luminometer, TNIK/IKKε/TBK1 Kinase Enzyme System (Promega, Ca# V4158; Invitrogen, PR8031B, Promega, Ca# V3991) and ADP-Glo Kinase Assay using ADP-Glo™ Kinase Analysis Kit (Promega, Ca# V9101) and a kinase reaction buffer [40 mM Tris(pH 7.5), 20 mM MgCl2, 0.1 mg/mL BSA] in accordance with the manufacturer's protocol.

IKKε = target: T2, IKKε (Homo sapiens, UniProt Q14164); experiment: ADP-Glo Kinase Assay, inhibition activity on IKKε
T2 construct: purchased Invitrogen PR8031B
T2 sequence (Q14164 1-716): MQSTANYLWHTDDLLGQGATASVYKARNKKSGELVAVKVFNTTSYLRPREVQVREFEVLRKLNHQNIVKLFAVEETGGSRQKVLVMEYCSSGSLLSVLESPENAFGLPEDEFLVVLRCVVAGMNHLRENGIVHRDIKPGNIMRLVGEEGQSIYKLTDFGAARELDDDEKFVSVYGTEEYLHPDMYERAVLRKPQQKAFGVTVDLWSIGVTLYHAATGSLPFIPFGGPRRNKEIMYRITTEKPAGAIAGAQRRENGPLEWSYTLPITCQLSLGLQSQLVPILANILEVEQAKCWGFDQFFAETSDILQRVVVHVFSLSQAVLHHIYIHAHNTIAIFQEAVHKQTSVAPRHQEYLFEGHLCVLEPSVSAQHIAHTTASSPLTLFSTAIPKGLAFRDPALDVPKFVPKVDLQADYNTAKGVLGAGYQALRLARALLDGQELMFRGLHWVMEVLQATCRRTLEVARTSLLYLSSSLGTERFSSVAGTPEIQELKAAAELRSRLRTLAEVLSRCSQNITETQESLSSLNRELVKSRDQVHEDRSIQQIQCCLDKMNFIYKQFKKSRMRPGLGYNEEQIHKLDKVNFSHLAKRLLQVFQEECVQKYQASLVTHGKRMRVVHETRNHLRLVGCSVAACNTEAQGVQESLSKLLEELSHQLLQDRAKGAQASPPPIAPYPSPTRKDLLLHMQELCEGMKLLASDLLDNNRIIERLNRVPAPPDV
Method: as §1

TNIK = target: T3, TNIK (Homo sapiens, UniProt Q9UKE5); experiment: ADP-Glo Kinase Assay, inhibition activity on TNIK; conditions: read-out: TNIK
T3 construct: purchased Promega V4158
Method: as §1

T3 sequence (Q9UKE5 1-367 limits assumed): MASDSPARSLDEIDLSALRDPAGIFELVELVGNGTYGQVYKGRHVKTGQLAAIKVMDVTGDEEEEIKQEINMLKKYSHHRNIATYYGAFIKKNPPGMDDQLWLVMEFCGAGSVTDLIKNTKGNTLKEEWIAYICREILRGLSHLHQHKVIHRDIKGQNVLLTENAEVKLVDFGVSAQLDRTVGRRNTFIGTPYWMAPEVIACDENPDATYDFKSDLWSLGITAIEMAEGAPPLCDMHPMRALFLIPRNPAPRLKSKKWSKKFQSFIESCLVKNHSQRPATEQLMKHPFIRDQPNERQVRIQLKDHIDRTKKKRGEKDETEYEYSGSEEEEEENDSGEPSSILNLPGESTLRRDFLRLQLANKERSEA

Row | IC50 (TBK1) [nM] | IC50 (IKKε) [nM] | IC50 (TNIK) [nM] | SMILES
1 | 1240 | 2640 |  | COc1cccc(Nc2cc(-c3ccc(N)c4c3CNC4=O)ccn2)c1 [Example 68, 7-Amino-4-(2-((3-methoxyphenyl)amino)pyridin-4-yl) isoindolin-1-one]
2 | > 10000 |  |  | COc1cccc(Nc2ccnc(-c3ccc(N)c4c3CNC4=O)c2)c1 [Example 69, 7-Amino-4-(4-((3-methoxyphenyl)amino)pyridin-2-yl) isoindolin-1-one]
3 | 51 | 51 |  | COc1cccc(Nc2nccc(-c3ccc(N)c4c3CNC4=O)n2)c1 [Example 70, 7-Amino-4-(2-((3-methoxyphenyl)amino)pyrimidin-4-yl) isoindolin-1-one]
4 | 150 | 160 |  | Cn1cc(Nc2nccc(-c3ccc(N)c4c3CNC4=O)n2)cn1 [Example 71]
5 | 90 | 280 |  | Nc1ccc(-c2ccnc(Nc3ccccc3)n2)c2c1C(=O)NC2 [Example 72, 7-Amino-4-(2-(phenylamino)pyrimidin-4-yl)isoindolin-1-one]
6 | 35 | 350 |  | Nc1ccc(-c2ccnc(Nc3cccc(F)c3)n2)c2c1C(=O)NC2 [Example 73, 7-Amino-4-(2-((3-fluorophenyl)amino)pyrimidin-4-yl) isoindolin-1-one]
7 | 43 | 560 |  | Nc1ccc(-c2ccnc(Nc3ccc(F)cc3)n2)c2c1C(=O)NC2 [Example 74, 7-Amino-4-(2-((4-fluorophenyl)amino)pyrimidin-4-yl) isoindolin-1-one]
8 | 110 | 360 |  | COc1ccc(Nc2nccc(-c3ccc(N)c4c3CNC4=O)n2)cc1 [Example 75, 7-Amino-4-(2-((4-methoxyphenyl)amino)pyrimidin-4-yl) isoindolin-1-one]
9 | 640 |  |  | Nc1ccc(-c2c[nH]c3ncc(-c4ccccc4)cc23)c2c1C(=O)NC2 [Example 79, 7-Amino-4-(5-phenyl-1H-pyrrolo[2,3-b]pyridin-3-yl) isoindolin-1-one]
10 |  |  | 430 | Cc1ccccc1Nc1ccc(NC(=O)c2ccc(NCCN3CCCC3)cc2)c2c1CNC2=O [Example 473, N-(3-oxo-7-(o-tolylamino)isoindolin-4-yl)-4-((2-(pyrrolidin-1-yl)ethyl)amino)benzamide]
11 |  |  | 440 | COc1ccccc1Nc1ccc(NC(=O)c2ccc(NCCN3CCCC3)cc2)c2c1CNC2=O [Example 474, N-(7-((2-methoxyphenyl)amino)-3-oxoisoindolin-4-yl)-4-((2-(pyrrolidin-1-yl)ethyl)amino)benzamide]
12 |  |  | 470 | COc1ccccc1Nc1ccc(NC(=O)c2ccc(NCCCN3CCCC3)cc2)c2c1CNC2=O [Example 475, N-(7-((2-methoxyphenyl)amino)-3-oxoisoindolin-4-yl)-4-((3-(pyrrolidin-1-yl)propyl)amino)benzamide]
13 |  |  | 500 | Cc1ccccc1Nc1ccc(NC(=O)c2ccc(NCCCN3CCCC3)cc2)c2c1CNC2=O [Example 476, N-(3-oxo-7-(o-tolylamino)isoindolin-4-yl)-4-((3-(pyrrolidin-1-yl)propyl)amino)benzamide]
14 |  |  | 420 | COc1ccccc1Nc1ccc(NC(=O)c2ccc(NCCN3CCCCC3)cc2)c2c1CNC2=O [Example 477, N-(7-((2-methoxyphenyl)amino)-3-oxoisoindolin-4-yl)-4-((2-(piperidin-1-yl)ethyl)amino)benzamide]
15 |  |  | 490 | COc1ccccc1Nc1ccc(NC(=O)c2ccc(NCCCN3CCCCC3)cc2)c2c1CNC2=O [Example 478, N-(7-((2-methoxyphenyl)amino)-3-oxoisoindolin-4-yl)-4-((3-(piperidin-1-yl)propyl)amino)benzamide]
16 |  |  | 110 | O=C(Nc1ccc(Nc2ccccc2)c2c1C(=O)NC2)c1ccc(NCCCN2CCCCC2)cc1 [Example 479, N-(3-oxo-7-(phenylamino)isoindolin-4-yl)-4-((3-(piperidin-1-yl)propyl)amino)benzamide]
17 |  |  | 220 | O=C(Nc1ccc(Nc2ccccc2)c2c1C(=O)NC2)c1ccc(NCCCN2CCCCC2)cc1 [Example 480, N-(3-oxo-7-(phenylamino)isoindolin-4-yl)-4-((3-(piperidin-1-yl)propyl)amino)benzamide hydrochloride]
18 |  |  | 200 | NCCNc1ccc(C(=O)Nc2ccc(Nc3ccccc3)c3c2C(=O)NC3)cc1 [Example 481, 4-((2-Aminoethyl)amino)-N-(3-oxo-7-(phenylamino)isoindolin-4-yl)benzamide]
19 |  |  | 420 | Cc1ccccc1Nc1ccc(NC(=O)c2ccc(NCCN3CCCCC3)cc2)c2c1CNC2=O [Example 482, N-(3-oxo-7-(o-tolylamino)isoindolin-4-yl)-4-((2-(piperidin-1-yl)ethyl)amino)benzamide]
20 |  |  | 250 | Cc1ccccc1Nc1ccc(NC(=O)c2ccc(NCCCN3CCCCC3)cc2)c2c1CNC2=O [Example 483, N-(3-oxo-7-(o-tolylamino)isoindolin-4-yl)-4-((3-(piperidin-1-yl)propyl)amino)benzamide]
21 |  |  | 290 | O=C(Nc1ccc(Nc2ccccc2)c2c1C(=O)NC2)c1ccc(NCCCCO)cc1 [Example 484, 4-((4-Hydroxybutyl)amino)-N-(3-oxo-7-(phenylamino)isoindolin-4-yl)benzamide]
22 |  |  | 100 | CC(=O)NCCNc1ccc(C(=O)Nc2ccc(Nc3ccccc3)c3c2C(=O)NC3)cc1 [Example 485, 4-((2-Acetamidoethyl)amino)-N-(3-oxo-7-(phenylamino)isoindolin-4-yl)benzamide]
23 |  |  | 200 | NCCCNc1ccc(C(=O)Nc2ccc(Nc3ccccc3)c3c2C(=O)NC3)cc1 [Example 486, 4-((3-Aminopropyl)amino)-N-(3-oxo-7-(phenylamino)isoindolin-4-yl)benzamide]
24 |  |  | 97 | O=C(Nc1ccc(Nc2ccccc2)c2c1C(=O)NC2)c1ccc(NCCO)cc1 [Example 487, 4-((2-Hydroxyethyl)amino)-N-(3-oxo-7-(phenylamino)isoindolin-4-yl)benzamide]
25 |  |  | 93 | O=C(Nc1ccc(Nc2ccccc2)c2c1C(=O)NC2)c1ccc(NCC(O)CN2CCCCC2)cc1 (stereo not drawn) [Example 488, 4-((2-Hydroxy-3-(piperidin-1-yl)propyl)amino)-N-(3-oxo-7-(phenylamino)isoindolin-4-yl)benzamide]
26 |  |  | 87 | O=C(Nc1ccc(Nc2ccccc2)c2c1C(=O)NC2)c1ccc(NC[C@H](O)CN2CCCCC2)cc1 [Example 489, (S)-4-((2-hydroxy-3-(piperidin-1-yl)propyl)amino)-N-(3-oxo-7-(phenylamino)isoindolin-4-yl)benzamide]
27 |  |  | 140 | O=C(Nc1ccc(Nc2ccccc2)c2c1C(=O)NC2)c1ccc(NC[C@@H](O)CN2CCCCC2)cc1 [Example 490, (R)-4-((2-hydroxy-3-(piperidin-1-yl)propyl)amino)-N-(3-oxo-7-(phenylamino)isoindolin-4-yl)benzamide]
28 |  |  | 110 | NC1CCN(c2ccc(C(=O)Nc3ccc(Nc4ccccc4)c4c3C(=O)NC4)cc2)CC1 [Example 491, 4-(4-Aminopiperidin-1-yl)-N-(3-oxo-7-(phenylamino)isoindolin-4-yl)benzamide]
29 |  |  | 180 | O=C(Nc1ccc(Nc2ccccc2)c2c1C(=O)NC2)c1ccc(NCCN2CCCCCC2)cc1 [Example 492, 4-((2-(Azepan-1-yl)ethyl)amino)-N-(3-oxo-7-(phenylamino)isoindolin-4-yl)benzamide]
